According to ChEMBL document CHEMBL1201862, “PubChem BioAssay data set” (2004):
One block for each molecule: values may come before it. Calls of active or inactive are those of the source.

Experiments:
Bcl-2-related protein A1 [1] = biological target: T1, Bcl-2-related protein A1 (Mus musculus, UniProt Q07440); experiment: Bfl-1 inhibitors blocking BH3 peptide binding, confirmation, biochemical, TR-FRET, mouse Bfl-1 (AID 621);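 note: TR-FRET binding of GST-Bfl-1 to FITC-labelled Bid peptide via terbium antibody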
T1 sequence (Q07440 whole entry): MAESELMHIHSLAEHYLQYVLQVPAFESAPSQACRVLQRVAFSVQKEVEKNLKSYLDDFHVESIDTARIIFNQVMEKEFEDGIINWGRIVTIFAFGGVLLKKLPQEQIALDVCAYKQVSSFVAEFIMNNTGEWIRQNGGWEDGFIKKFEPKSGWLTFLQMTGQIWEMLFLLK

[2] = biological target: Glyceraldehyde-3-phosphate dehydrogenase (Homo sapiens, UniProt P04406)
Chain of Glyceraldehyde-3-phosphate dehydrogenase (P04406 whole entry): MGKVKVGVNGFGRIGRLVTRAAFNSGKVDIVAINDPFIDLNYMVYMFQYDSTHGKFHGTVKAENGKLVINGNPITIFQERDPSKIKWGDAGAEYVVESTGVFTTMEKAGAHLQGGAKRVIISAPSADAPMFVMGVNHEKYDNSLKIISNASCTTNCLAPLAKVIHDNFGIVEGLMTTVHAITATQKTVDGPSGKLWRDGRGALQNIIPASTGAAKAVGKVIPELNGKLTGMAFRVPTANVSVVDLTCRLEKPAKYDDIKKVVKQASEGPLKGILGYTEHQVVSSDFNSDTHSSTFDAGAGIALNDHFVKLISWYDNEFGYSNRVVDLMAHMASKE

Bcl-2-related protein A1 [3] = biological target: T1, Bcl-2-related protein A1; experiment: Bfl-1 binding inhibitors, SAR follow-up, biochemical, fluorescence polarization (AID 1070)
[4] = biological target: T2, Glutathione-S-transferase (Schistosoma japonicum, UniProt Q26513); experiment: biotin-GST/anti-GST TR-FRET signal inhibitors, dose response, artefact control for Vif-APOBEC3G degradation inhibitor project, biochemical (AID 1117362); format: functional
T2 sequence (Q26513 whole entry): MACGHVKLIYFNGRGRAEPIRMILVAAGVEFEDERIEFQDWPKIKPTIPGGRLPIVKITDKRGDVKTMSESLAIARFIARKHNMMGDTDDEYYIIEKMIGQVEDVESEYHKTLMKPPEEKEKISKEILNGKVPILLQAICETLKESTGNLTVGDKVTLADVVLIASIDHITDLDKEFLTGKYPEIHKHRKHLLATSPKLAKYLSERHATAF

[5] = biological target: T3, Rac GTPase-activating protein 1 (Homo sapiens, UniProt Q9H0H5); experiment: MgcRacGAP GTPase-activating activity inhibitors, confirmation, biochemical, ADP Hunter fluorescence, primary and confirmatory (AID 624330); format: functional
T3 sequence (Q9H0H5 whole entry): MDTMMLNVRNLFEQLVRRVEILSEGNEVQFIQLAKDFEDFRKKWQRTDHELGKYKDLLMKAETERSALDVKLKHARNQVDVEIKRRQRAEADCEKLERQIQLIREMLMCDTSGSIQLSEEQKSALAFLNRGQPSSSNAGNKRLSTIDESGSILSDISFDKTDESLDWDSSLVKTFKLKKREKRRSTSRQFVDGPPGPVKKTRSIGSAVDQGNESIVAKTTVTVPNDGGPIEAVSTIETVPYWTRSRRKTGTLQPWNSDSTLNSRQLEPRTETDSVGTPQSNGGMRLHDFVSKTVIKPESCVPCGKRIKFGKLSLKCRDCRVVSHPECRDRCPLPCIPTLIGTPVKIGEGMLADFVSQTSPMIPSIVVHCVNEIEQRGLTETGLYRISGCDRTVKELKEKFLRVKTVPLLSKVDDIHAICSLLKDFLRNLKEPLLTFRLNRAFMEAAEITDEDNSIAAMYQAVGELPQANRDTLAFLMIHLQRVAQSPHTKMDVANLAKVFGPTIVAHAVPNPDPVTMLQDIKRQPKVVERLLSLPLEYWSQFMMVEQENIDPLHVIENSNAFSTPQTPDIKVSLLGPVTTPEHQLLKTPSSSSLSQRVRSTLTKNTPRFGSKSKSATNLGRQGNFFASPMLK

[6] = biological target: NAD-dependent protein deacylase sirtuin-5, mitochondrial (Homo sapiens, UniProt Q9NXA8); experiment: SIRT5 desuccinylase inhibitors, dose response, biochemical, fluorescence imaging, cherry-pick, set 5 (AID 720591);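 note: desuccinylation of succinyl peptide AMC substrate read as fluorescence after trypsin release; potency of inhibitors that lower fluorescence and may act on trypsin instead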
Chain of NAD-dependent protein deacylase sirtuin-5, mitochondrial (Q9NXA8 whole entry): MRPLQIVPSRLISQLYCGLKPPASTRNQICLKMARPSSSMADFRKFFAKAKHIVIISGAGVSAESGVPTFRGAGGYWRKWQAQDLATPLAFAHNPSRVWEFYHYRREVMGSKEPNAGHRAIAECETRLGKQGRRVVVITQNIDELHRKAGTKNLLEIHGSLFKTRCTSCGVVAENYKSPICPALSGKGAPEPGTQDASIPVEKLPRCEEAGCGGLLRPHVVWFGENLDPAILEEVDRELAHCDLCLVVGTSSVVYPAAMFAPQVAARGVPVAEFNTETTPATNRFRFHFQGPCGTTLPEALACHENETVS

Large T antigen = Large T antigen (Simian virus 40, UniProt P03070); format: functional, Betapolyomavirus macacae;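 note: Confirmatory-stage PubChem screen for compounds that inhibit SV40 T antigen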
Chain of Large T antigen (P03070 whole entry): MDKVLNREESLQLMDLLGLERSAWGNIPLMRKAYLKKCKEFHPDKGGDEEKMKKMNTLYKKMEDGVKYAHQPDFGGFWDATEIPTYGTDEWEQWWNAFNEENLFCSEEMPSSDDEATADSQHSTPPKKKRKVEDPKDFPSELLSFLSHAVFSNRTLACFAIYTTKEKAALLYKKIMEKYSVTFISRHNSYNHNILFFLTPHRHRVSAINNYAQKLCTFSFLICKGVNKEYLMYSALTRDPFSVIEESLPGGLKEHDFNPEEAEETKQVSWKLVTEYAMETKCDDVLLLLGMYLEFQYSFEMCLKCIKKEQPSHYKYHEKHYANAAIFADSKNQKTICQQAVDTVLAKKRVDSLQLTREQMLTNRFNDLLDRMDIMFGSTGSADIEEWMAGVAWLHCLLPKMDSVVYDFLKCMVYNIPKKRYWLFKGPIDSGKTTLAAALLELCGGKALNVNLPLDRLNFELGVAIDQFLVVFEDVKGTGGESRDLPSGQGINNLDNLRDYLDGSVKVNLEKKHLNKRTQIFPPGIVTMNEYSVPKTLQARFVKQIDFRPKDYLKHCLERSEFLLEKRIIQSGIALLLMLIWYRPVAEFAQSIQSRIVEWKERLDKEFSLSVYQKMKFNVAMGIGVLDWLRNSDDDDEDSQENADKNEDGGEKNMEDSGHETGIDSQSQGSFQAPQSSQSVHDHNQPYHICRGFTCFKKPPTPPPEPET

[7] = biological target: Glucose-6-phosphate 1-dehydrogenase (Homo sapiens, UniProt P11413); experiment: human G6PD enzyme inhibitors, dose response, selectivity assay for P. falciparum G6PD inhibitor project, biochemical, fluorescence (AID 504792); format: functional
Chain of Glucose-6-phosphate 1-dehydrogenase (P11413 whole entry): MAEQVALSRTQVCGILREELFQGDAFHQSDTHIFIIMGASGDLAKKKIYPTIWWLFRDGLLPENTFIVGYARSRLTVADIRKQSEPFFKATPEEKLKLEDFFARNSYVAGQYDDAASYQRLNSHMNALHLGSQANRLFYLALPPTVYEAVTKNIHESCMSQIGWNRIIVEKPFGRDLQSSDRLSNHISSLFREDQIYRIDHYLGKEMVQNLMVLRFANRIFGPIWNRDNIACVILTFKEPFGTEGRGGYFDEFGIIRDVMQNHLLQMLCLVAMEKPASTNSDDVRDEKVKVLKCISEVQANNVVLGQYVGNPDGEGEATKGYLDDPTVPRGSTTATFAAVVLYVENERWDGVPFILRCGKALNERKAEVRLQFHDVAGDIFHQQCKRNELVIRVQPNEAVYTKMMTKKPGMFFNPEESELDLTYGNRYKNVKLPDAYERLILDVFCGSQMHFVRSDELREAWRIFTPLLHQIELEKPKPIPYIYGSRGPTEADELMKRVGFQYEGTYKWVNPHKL

[8] = biological target: T4, Sentrin-specific protease 8 (Homo sapiens, UniProt Q96LD8); format: functional;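 note: luminescence read-out of SENP8 inhibition, dose-response confirmation following an ultra-high-throughput screen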
T4 sequence (Q96LD8 whole entry): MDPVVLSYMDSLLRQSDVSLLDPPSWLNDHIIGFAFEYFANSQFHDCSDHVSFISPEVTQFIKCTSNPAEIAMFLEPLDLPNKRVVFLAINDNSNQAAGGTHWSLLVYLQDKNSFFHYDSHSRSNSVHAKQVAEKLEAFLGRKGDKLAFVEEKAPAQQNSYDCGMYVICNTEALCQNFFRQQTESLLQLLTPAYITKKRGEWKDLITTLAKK

Caspase-3 = biological target: T5, Caspase-3 (Homo sapiens, UniProt P42574); format: functional;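 note: Dose-response selectivity test against caspase-3 for candidate inhibitors of sentrin-specific proteases (SENPs)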
T5 sequence (P42574 whole entry): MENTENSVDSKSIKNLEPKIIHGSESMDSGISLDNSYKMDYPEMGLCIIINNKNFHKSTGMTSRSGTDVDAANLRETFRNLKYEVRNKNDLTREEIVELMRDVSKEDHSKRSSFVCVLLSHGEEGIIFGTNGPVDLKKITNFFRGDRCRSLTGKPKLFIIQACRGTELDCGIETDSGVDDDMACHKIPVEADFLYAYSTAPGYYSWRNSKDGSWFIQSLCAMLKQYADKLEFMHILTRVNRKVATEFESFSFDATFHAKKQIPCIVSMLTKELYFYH

[9] = biological target: T6, Sentrin-specific protease 7 (Homo sapiens, UniProt Q9BQF6); format: functional;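 note: Luminescence-based dose-response confirmation of ultra-high-throughput screening hits, measuring inhibition of SENP7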
T6 sequence (Q9BQF6 whole entry): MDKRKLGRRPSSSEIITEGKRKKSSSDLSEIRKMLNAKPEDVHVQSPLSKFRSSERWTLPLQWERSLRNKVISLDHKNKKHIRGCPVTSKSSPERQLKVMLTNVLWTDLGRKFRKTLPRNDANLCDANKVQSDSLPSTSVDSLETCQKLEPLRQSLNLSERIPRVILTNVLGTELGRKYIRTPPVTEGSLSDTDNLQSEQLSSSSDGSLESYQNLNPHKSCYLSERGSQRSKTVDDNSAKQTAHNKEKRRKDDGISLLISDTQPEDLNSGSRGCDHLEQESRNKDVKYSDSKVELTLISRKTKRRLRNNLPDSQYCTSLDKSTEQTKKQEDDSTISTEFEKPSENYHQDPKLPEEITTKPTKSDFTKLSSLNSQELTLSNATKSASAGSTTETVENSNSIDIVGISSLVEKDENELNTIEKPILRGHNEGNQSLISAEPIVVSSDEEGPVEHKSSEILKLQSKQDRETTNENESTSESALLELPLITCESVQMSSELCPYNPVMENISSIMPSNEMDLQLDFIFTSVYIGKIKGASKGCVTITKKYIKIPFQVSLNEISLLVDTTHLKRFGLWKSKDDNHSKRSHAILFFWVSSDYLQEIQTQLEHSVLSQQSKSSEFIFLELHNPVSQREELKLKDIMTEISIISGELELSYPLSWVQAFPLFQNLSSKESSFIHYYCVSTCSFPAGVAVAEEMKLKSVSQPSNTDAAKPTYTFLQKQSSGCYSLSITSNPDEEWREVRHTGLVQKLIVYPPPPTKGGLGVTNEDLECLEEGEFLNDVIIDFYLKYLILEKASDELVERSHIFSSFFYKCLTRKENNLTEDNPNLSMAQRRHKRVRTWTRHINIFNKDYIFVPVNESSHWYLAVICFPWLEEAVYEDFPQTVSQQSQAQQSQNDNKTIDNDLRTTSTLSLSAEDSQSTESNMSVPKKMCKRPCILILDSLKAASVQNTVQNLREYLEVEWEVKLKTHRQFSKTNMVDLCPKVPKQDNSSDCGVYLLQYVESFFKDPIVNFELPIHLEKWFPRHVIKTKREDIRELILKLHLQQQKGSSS

[10] = biological target: T7, Sentrin-specific protease 6 (Homo sapiens, UniProt Q9GZR1); format: functional;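 note: Luminescence-based dose-response confirmatory assay of SENP6 inhibition, following up an ultra-high-throughput screen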
T7 sequence (Q9GZR1 whole entry): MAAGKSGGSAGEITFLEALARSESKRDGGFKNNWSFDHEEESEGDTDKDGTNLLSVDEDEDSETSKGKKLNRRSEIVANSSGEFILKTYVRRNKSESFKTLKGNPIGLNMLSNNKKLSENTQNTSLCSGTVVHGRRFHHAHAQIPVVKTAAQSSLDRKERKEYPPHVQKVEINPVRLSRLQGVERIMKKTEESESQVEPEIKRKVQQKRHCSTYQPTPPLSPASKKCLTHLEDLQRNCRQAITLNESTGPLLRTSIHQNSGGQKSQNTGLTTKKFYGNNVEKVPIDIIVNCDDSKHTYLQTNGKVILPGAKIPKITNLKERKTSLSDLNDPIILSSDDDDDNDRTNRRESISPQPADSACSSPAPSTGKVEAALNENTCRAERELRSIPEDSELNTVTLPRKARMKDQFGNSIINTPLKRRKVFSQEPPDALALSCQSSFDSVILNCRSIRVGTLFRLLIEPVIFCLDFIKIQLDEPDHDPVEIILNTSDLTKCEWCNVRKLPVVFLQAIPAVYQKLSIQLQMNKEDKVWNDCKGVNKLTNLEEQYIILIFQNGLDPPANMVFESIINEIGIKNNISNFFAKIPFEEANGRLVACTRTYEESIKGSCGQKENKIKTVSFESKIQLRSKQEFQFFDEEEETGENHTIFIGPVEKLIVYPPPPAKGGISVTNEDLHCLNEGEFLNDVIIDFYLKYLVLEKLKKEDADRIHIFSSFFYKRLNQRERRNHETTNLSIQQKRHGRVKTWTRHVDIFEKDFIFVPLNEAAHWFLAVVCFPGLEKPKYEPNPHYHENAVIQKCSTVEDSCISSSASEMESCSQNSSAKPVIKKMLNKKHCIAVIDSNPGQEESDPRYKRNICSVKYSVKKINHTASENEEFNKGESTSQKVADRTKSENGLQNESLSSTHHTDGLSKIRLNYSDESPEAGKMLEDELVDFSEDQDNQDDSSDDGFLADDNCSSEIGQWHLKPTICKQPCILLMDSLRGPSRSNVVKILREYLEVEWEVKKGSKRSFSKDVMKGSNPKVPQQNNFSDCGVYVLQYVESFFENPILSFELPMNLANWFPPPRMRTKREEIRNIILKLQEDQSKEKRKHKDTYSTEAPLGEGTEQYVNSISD

[11] = biological target: Mitogen-activated protein kinase 10 (Homo sapiens, UniProt P53779); experiment: Dose response biochemical screening assay for inhibitors of c-Jun N-Terminal Kinase 3 (JNK3). [Related pubchem assays: 746 ]
Chain of Mitogen-activated protein kinase 10 (P53779 whole entry): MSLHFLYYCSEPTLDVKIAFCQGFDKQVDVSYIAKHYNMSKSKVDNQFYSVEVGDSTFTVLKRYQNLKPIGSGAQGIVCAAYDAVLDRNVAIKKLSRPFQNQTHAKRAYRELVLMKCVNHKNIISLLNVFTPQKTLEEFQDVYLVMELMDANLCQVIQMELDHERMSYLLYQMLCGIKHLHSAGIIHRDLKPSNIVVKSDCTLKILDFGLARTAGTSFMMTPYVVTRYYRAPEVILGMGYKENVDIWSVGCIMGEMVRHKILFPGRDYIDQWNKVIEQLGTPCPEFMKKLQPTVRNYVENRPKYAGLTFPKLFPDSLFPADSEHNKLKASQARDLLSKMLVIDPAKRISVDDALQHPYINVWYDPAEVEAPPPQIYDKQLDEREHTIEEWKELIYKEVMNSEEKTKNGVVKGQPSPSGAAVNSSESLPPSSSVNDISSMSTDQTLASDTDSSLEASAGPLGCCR

Caspase-6 = biological target: T8, Caspase-6 (Homo sapiens, UniProt P55212); experiment: human caspase-6 inhibitors, dose response, biochemical, VEID-R110 fluorescence, cherry-pick (AID 720632)
T8 sequence (P55212 whole entry): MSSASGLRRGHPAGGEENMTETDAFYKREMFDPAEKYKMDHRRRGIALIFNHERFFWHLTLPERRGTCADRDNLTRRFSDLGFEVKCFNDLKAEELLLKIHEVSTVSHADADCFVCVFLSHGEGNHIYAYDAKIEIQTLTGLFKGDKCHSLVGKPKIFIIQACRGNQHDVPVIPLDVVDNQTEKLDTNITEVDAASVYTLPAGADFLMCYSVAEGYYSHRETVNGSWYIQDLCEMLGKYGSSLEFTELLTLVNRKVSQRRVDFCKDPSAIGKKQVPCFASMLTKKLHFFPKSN

[12] = biological target: E3 ubiquitin-protein ligase Mdm2 (Homo sapiens, UniProt Q00987); experiment: enhancers of MDM2-luciferase reporter signal, concentration-effect titration, project on inhibitors of MDM2 ubiquitin ligase, cellular assay, luminescent readout, 384-well plate format (AID 1394); format: functional;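 note: MDM2 E3 inhibitors raise luminescence so EC50 is for signal enhancement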
Chain of E3 ubiquitin-protein ligase Mdm2 (Q00987 whole entry): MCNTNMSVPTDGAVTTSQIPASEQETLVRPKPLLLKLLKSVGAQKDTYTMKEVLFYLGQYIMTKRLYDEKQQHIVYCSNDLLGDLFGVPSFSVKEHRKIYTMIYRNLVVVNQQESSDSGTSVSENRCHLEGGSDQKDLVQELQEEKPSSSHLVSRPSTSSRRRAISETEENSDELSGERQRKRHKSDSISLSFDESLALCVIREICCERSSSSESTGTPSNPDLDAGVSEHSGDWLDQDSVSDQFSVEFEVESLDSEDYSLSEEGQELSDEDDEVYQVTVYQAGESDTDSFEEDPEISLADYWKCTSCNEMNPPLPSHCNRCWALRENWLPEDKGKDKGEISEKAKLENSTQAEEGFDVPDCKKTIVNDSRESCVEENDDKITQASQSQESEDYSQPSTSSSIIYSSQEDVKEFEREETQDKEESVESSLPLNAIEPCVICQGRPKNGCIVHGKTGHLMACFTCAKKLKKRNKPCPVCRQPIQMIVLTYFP

HEK293 = experiment: inhibitors of LMP1-driven NF-kB reporter, dose response, cell-based, HEK293, luciferase, cherry-pick (AID 588343); format: functional; conditions: Homo sapiens

SMILES: CC(=O)N1CCN(c2ccc(NCc3ccc4c(c3)OCO4)cc2)CC1
IC50 [4]: 16.3 µM (active)
IC50 [5]: 12.9 µM (active)

SMILES: CCC(C)N1C(=O)N(C)C2NC(=O)NC21 (stereo unspecified)
AC50 [6]: 2.23 µM (active)

SMILES: COCCn1nnnc1C(c1cc2cc(OC)c(OC)cc2[nH]c1=O)N1CCN(c2ccc(O)cc2)CC1 (stereo unspecified)
IC50 (Large T antigen): 6.67 µM (active)
IC50 [7]: > 80 µM (inactive)
IC50 [4]: > 100 µM (active)

SMILES: Cc1ccc(-n2nnc(-c3cccnc3Cl)n2)cc1
IC50 [8]: > 100 µM (inactive)
IC50 (Caspase-3): 9.03 µM (active)
IC50 (Bcl-2-related protein A1 [1]): > 100 µM (not active)
IC50 [9]: 3.18 µM (active)
IC50 [10]: 4.03 µM (active)
IC50 (Bcl-2-related protein A1 [3]): > 100 µM (not active)

SMILES: O=c1c2ccccc2nc(-c2ccco2)n1CCCn1ccnc1
IC50 [11]: > 31 µM (not active)

SMILES: Cc1ccc(NC(=O)c2noc3c2CCC3)cc1C
AC50 (Caspase-6): 5.83 µM (active)

SMILES: COC(=O)c1ccccc1NC(=O)COC(=O)CSCC(=O)N1CCOCC1
IC50 [11]: > 93.1 µM (not active)

SMILES: CC(C)c1ccc(OCc2cccc(C(=O)N/N=C/c3cccnc3)c2)cc1
EC50 [12]: 0.02 µM (active)
AC50 (HEK293): 0.98 µM (active)

SMILES: O=C(C1Cc2ccccc2CN1S(=O)(=O)c1ccc(F)cc1)N1CCOCC1 (stereo unspecified)
AC50 [6]: 23.6 µM (active)

Second part, the molecule after the results:

IC50 (Bcl-2-related protein A1 [1]): 0.97 µM (active)
IC50 [2]: > 100 µM (not active)
IC50 (Bcl-2-related protein A1 [3]): 1.67 µM (active)
SMILES: CCN1CCN(C2=C(Cl)C(=O)N(c3ccc(Cl)c(Cl)c3)C2=O)CC1

IC50 (Bcl-2-related protein A1 [1]): > 100 µM (not active)
IC50 [2]: > 100 µM (not active)
IC50 (Bcl-2-related protein A1 [3]): 2.3 µM (active)
SMILES: CN(C)C1=C(Cl)C(=O)N(c2cccc([N+](=O)[O-])c2)C1=O

IC50 [4]: > 100 µM (active)
SMILES: CC1Cc2ccccc2N1Cc1cc(=O)n2ccsc2n1 (stereo unspecified)

AC50 [6]: > 30 µM (inactive)
SMILES: Cc1ccc(C)c(N2CCN(S(=O)(=O)c3ccc4c(c3)CC(=O)N4C)CC2)c1
